“And” between values parts separate entries of the source, which are not always exact repeats. Identical values can stand only once. “Also recorded” adds a separate entry of the source. Like-named read-outs stand apart in the source and are kept apart here.
Columns and labels:
CD3+ΔCD19+ cells = experiment: CASPALLO phase I clinical trial, AP1903 in patients with GvHD after iCasp9 T cells; type: in vivo, human
human CD3+CD19+ T cells = experiment: AP1903 dose-dependent elimination in vivo of transduced T cells in NSG mice; design: species or system mouse; details: T cells with wild-type iCasp9, i.p., 24 hours
Procedure: T cells were transduced with SFG-iCasp9-2A-ΔCD19 retrovirus and injected i.v. into immune deficient mice (NSG). […] After an additional 24 hours, mice were sacrificed and lymphocytes from the spleen (FIG. 61A) and peripheral blood (FIG. 61B) were isolated and analyzed by flow cytometry for the frequency of human CD3+CD19+ T cells.
T cells were transduced with SFG-iCasp9-D330E-2A-ΔCD19 retrovirus and injected i.v. into immune deficient mice (NSG). […] After an additional 24 hours, mice were sacrificed and lymphocytes from the spleen (A) were isolated and analyzed by flow cytometry for the frequency of human CD3+CD19+ T cells.

[1] = cited from earlier work; for safety and tolerability: healthy volunteers, 0.01-1.0 mg/kg
[2] = molecular target: chimeric caspase-9 polypeptide (Homo sapiens, UniProt P55211+P62942, F37V); experiment: AP1903-triggered apoptosis/signaling of cells expressing chimeric caspase-9 polypeptide; type: cell-based
chimeric caspase-9 polypeptide, sequence (P62942 2-108 F37V limits assumed): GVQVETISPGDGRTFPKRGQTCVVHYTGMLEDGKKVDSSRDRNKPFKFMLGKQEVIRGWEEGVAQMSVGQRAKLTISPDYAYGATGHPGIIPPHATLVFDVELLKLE
chimeric caspase-9 polypeptide, sequence (P55211 135-416 limits assumed): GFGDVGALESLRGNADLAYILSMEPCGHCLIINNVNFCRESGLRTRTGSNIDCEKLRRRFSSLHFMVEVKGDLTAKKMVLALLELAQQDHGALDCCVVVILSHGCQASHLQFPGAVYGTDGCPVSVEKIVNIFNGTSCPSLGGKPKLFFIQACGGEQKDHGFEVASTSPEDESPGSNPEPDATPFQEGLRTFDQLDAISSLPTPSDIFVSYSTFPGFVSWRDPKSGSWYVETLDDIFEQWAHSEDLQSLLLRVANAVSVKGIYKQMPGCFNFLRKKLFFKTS

[3] = tested on: gene-modified allodepleted cells; experiment: Induction of apoptosis with AP20187 in gene-modified allodepleted cells (annexin V/7-AAD); type: cell-based, human
Procedure: Suicide gene functionality was assessed by adding a small molecule synthetic homodimerizer, AP20187 (Ariad Pharmaceuticals; Cambridge, Mass.), at 10 nM final concentration the day following CD19 immunomagnetic selection. Cells were stained with annexin V and 7-aminoactinomycin (7-AAD)(BD Pharmingen) at 24 hours and analyzed by flow cytometry. Cells negative for both annexin V and 7-AAD were considered viable, cells that were annexin V positive were apoptotic, and cells that were both annexin V and 7-AAD positive were necrotic. The percentage killing induced by dimerization was corrected for baseline viability as follows: Percentage killing=100%−(% Viability in AP20187-treated cells÷ % Viability in non-treated cells).
Cells were maintained in T cell medium containing 50 U/ml IL-2 until 22 days after transduction. A portion of cells was reactivated on 24-well plates coated with […] OKT3 and 1 μg/ml anti-CD28 (Clone CD28.2, BD Pharmingen, San Jose, Calif.) for 48 to 72 hours. CD19 expression and suicide gene function in both reactivated and non-reactivated cells were measured on day 24 or 25 post transduction.
In some experiments, cells also were cultured for 3 weeks post transduction and stimulated with 30G-irradiated allogeneic PBMC at a responder:stimulator ratio of 1:1. After 4 days of co-culture, a portion of cells was treated with 10 nM AP20187. Killing was measured by annexin V/7-AAD staining at 24 hours, and the effect of dimerizer on bystander virus-specific T cells was assessed by pentamer analysis on AP20187-treated and untreated cells.

[4] = tested on: iCasp9M.IRES.GFPhigh-transduced CTLs; experiment: SCID mouse-human xenograft model, elimination of transduced CTLs by CID; type: in vivo; details: single dose of CID (50 μg AP20187 i.p.), vs carrier
Procedure: Non-obese diabetic severe combined immunodeficient (NOD/SCID) mice, 6 to 8 weeks of age, were irradiated (250 rad) and injected subcutaneously in the right flank with 10×10^6 to 15×10^6 LCLs resuspended in Matrigel (BD Bioscience). Two weeks later mice bearing tumors that were approximately 0.5 cm in diameter were injected into the tail vein with a 1:1 mixture of nontransduced and iCasp9.I.GFPhigh-transduced EBV CTLs (total 15×10^6). At 4 to 6 hours prior and 3 days after CTL infusion, mice were injected intraperitoneally with recombinant hIL-2 (2000 U; Proleukin; Chiron). On day 4, the mice were randomly segregated in 2 groups: 1 group received CID (50 μg AP20187, intraperitoneally) and 1 group received carrier only (16.7% propanediol, 22.5% PEG400, and 1.25% Tween 80, intraperitoneally). […] By FACS analysis, the number of GFP+ cells within the gated CD3^+ population was evaluated. […]
The function of iCasp9M in vivo is graphically illustrated in FIG. 7. […] On day 3 after CTL administration, mice received either CID (50 μg AP20187; (black diamonds, n=6) or carrier only (black squares, n=5) and on day 6 the presence of human CD3+/GFP+ T cells in the tumors was analyzed. Human CD3+ T cells isolated from the tumors of a control group of mice that received only nontransduced CTLs (15×10^6 CTLs; n=4) were used as a negative control for the analysis of CD3+/GFP+ T cells within the tumors.

[5] = tested on: iCasp9M-transduced EBV-CTLs; experiment: Loss of GFP-expressing iCasp9M-transduced EBV-CTLs after CID (flow cytometry); type: cell-based, human
iCasp9-transduced MSCs = experiment: Apoptosis of undifferentiated iCasp9-transduced MSCs after CID (annexin V/7-AAD FACS); type: cell-based, human
Procedure: Undifferentiated MSCs. The chemical inducer of dimerization (CID) (AP20187; ARIAD Pharmaceuticals, Cambridge, Mass.) was added at 50 nM to iCasp9-transduced MSCs cultures in complete medium. Apoptosis was evaluated 24 hours later by FACS analysis, after cell harvest and staining with annexin V-PE and 7-AAD in annexin V binding buffer (BD Biosciences, San Diego, Calif.). Control iCasp9-transduced MSCs were maintained in culture without exposure to CID.

[6] = tested on: differentiated iCasp9-positive MSCs; experiment: Apoptosis of differentiated iCasp9-transduced MSCs after CID (TUNEL, cell density); type: cell-based, human; details: adipocytic differentiation, 50 nM CID, after 24 hours (from 584)
Procedure: Differentiated MSCs. Transduced MSCs were differentiated as presented above. At the end of the differentiation period, CID was added to the differentiation media at 50 nM. Cells were stained appropriately for the tissue being studied, as presented above, and a contrast stain (methylene azur or methylene blue) was used to evaluate the nuclear and cytoplasmic morphology. In parallel, tissues were processed for terminal deoxynucleotidyl-transferase dUTP nick end labeling (TUNEL) assay as per manufacturer instructions (In Situ Cell Death Detection Kit, Roche Diagnostics, Mannheim, Germany). For each time point, four random fields were photographed at a final magnification of 40× and the images were analyzed with ImageJ software version 1.43o (NIH, Bethesda, Md.). Cell density was calculated as the number of nuclei (DAPI positivity) per unit of surface area (in mm^2). The percentage of apoptotic cells was determined as the ratio of the number of nuclei with positive TUNEL signal (FITC positivity) to the total number of nuclei. Controls were maintained in culture without CID.

[7] = tested on: F-Casp9M.I.GFPhigh-transduced T cells; experiment: annexin-V/7-AAD staining of CID-treated transduced CTLs; type: cell-based, human; details: GFPhigh-selected, overnight 10 nM CID
Procedure: CID (AP20187; ARIAD Pharmaceuticals) at indicated concentrations was added to transfected 293T cells or transduced CTLs. Adherent and nonadherent cells were harvested and washed with annexin binding buffer (BD Pharmingen, San Jose, Calif.). Cells were stained with annexin-V and 7-amino-actinomycin D (7-AAD) for 15 minutes according to the manufacturer's instructions (BD Pharmingen). Within 1 hour after staining, cells were analyzed by flow cytometry using CellQuest software (Becton Dickinson).

[8] = tested on: iCasp9-ΔCD19-transduced MSCs; experiment: In vivo killing of iCasp9-transduced MSCs in SCID mice (luminescence, qPCR); design: species or system mouse
[9] = tested on: Primary T cells from healthy donors
[10] = 10 nM, 24 hours, day after CD19 selection

Molecule: CC[C@H](C(=O)N1CCCC[C@H]1C(=O)O[C@H](CCc1ccc(OC)c(OC)c1)c1cccc(OCC(=O)NCCNC(=O)COc2cccc([C@@H](CCc3ccc(OC)c(OC)c3)OC(=O)[C@@H]3CCCCN3C(=O)[C@@H](CC)c3cc(OC)c(OC)c(OC)c3)c2)c1)c1cc(OC)c(OC)c(OC)c1 (relative stereo) [AP1903, 2-Piperidinecarboxylic acid, 1-[(2S)-1-oxo-2-(3,4,5-trimethoxyphenyl)butyl]-, 1,2-ethanediylbis[imino(2-oxo-2,1-ethanediyl)oxy-3,1-phenylene[(1R)-3-(3,4-dimethoxyphenyl)propylidene]]ester, [2S-[1(R*),2R*[S*[S*[1(R*),2R*]]]]]-(9Cl)]
- time to normalization of bilirubin concentration (CD3+ΔCD19+ cells; patient 1, post-treatment): ≤ 24 h
- time to disappearance of skin rash (CD3+ΔCD19+ cells; patient 2, post treatment): ≤ 24 h
- time to resolution of skin and liver aGvHD (CD3+ΔCD19+ cells; patients with grade I/II aGVHD): ≤ 24 h
- ablation of CD3+ΔCD19+ cells (CD3+ΔCD19+ cells; within 30 minutes of infusion, 0.4 mg/kg): > 90%
- further reduction of CD3+ΔCD19+ cells (CD3+ΔCD19+ cells; within 24 hours): further log reduction
- AP1903 dose sufficient to eliminate most modified T cells in vivo (human CD3+CD19+ T cells): 0.5 mg/kg
- adverse event considered possibly related ([1]; 1 volunteer at 1.0 mg/kg, facial flushing): vasodilatation
- plasma level, % of maximal concentration ([1]; 2 hours post-dose): ~7%
- plasma level, % of maximal concentration ([1]; 10 hours post-dose): ~1%
- safety and tolerability [1]: proven safe in healthy volunteers; also recorded: safe and well tolerated at all dose levels; also recorded: proven safe at the required dose; also recorded: substantially no significant adverse effects
- safety and tolerability ([1]; listed as API903): No serious adverse events
- amount of AP1903 needed in vitro for effective signaling of cells [2]: 0.1 to 10 nM

Molecule: CC[C@H](C(=O)N1CCCC[C@H]1C(=O)O[C@H](CCc1ccc(OC)c(OC)c1)c1cccc(OCC(=O)NCC(CNC(=O)COc2cccc([C@@H](CCc3ccc(OC)c(OC)c3)OC(=O)[C@@H]3CCCCN3C(=O)[C@@H](CC)c3cc(OC)c(OC)c(OC)c3)c2)CN(C)C)c1)c1cc(OC)c(OC)c(OC)c1 [AP20187]
- Killing efficiency after correction for baseline viability [3, 10]: about 92.9%±3.8%
- viable cells after AP20187 [3, 10]: about 5.5%±2.5%
- killing efficiency ([3]; OKT3/aCD28-reactivated cells, day 24 or 25): ~84.6%±8.0%
- effect on virus-specific T cells (pentamer analysis) ([3]; allostimulated cells, 10 nM AP20187): spares (and thereby enriches) viral reactive subpopulations
- killing efficiency ([3]; day 5 post transduction): 93.1±3.5%
- residual viability ([3]; day 24 post transduction, 10 nM AP20187): 19.6±5.6%
- killing efficiency ([3]; day 24 post transduction, non-reactivated): 63.1±6.2% and ~63.1%±6.2%
- percentage killing ([3]; large scale (n=3)): about 95.4%
- mean viability with AP20187 ([3]; large scale CD19 selection (n=3)): about 3.9%
- viability of non-transduced cells with AP20187 ([3]; non-transduced cells (n=6)): about 86%±9%
- Killing ([3]; reactivated, CD25 negative fraction): 78.6±9.1%
- percentage killing ([3]; small scale (n=5)): about 91.4%
- mean viability with AP20187 ([3]; small scale CD19 selection (n=5)): about 6.6%
- apoptosis / elimination of iCasp9-modified T cells after dimerizer ([3]; summary statement, listed as small-molecule dimerizer): > 90%
- reduction in the number of human CD3+/GFP+ T cells in tumors ([4]; listed as CID): > 99%
- reduction in the number of human CD3+/GFP+ T cells in tumors ([4]; listed as dimerizer): more than 99%
- CID concentration sufficient to obtain the maximal deletion effect ([5]; F-Casp9M.I.GFPhigh, day 7): 1 nM
- reduction in mean fluorescence intensity of GFP in surviving CTLs ([5]; after CID): 70%
- GFP+ cells eliminated ([5]; unselected CTLs, single 10-nM dose of CID, 5 donors): 91.3%
- annexin positive non-transduced control MSC (Control/CID) (iCasp9-transduced MSCs; CID 50 nM, 24 hours): 15%
- apoptosis index of iCasp9-negative cells (iCasp9-transduced MSCs; CID 50 nM, 24 hrs, listed as CID): 20±7% and 19%
- apoptotic death of iCasp9-positive cells (iCasp9-transduced MSCs; CID 50 nM, within 24 hrs): 93±1%
- apoptotic cells among magnetically immunoselected iCasp9-CD19-positive cells (iCasp9-transduced MSCs; after exposure to CID): More than 95%
- cell density [6]: < 14 cells/mm2
- apoptotic (annexin-V+/7-AAD−) phenotype [7]: 64%
- necrotic (annexinV+/7-AAD+) phenotype ([7]; listed as CID): 30% and 32%
- proportion of surviving iCasp9-positive cells ([8]; mouse, in vivo): 0.7%
- killing / depletion of iCasp9-positive MSCs in vivo ([8]; two injections of 50 μg of CID 24 hours apart): > 99%

B1: N405Qco: codon-optimized version of the modified caspase-9 polypeptide having the N405Q substitution, SEQ ID NO: 39/40 (protein)
chain: VDGFGDVGALESLRGNADLAYILSMEPCGHCLIINNVNFCRESGLRTRTGSNIDCEKLRRRFSSLHFMVEVKGDLTAKKMVLALLELARQDHGALDCCVVVILSHGCQASHLQFPGAVYGTDGCPVSVEKIVNIFNGTSCPSLGGKPKLFFIQACGGEQKDHGFEVASTSPEDESPGSNPEPDATPFQEGLRTFDQLDAISSLPTPSDIFVSYSTFPGFVSWRDPKSGSWYVETLDDIFEQWAHSEDLQSLLLRVANAVSVKGIYKQMPGCFQFLRKKLFFKTSASRA
- AP1903-dependent cytotoxicity / sensitivity in transduced T cells [9]: very subtle effect on inducible caspase function

Source: patent US20150328292A1, “CASPASE POLYPEPTIDES HAVING MODIFIED ACTIVITY AND USES THEREOF” (BELLICUM PHARMACEUTICALS, INC., priority 2014, published 2015)
